The text below walks through data of ChEMBL document CHEMBL1781986, “Structure-activity relationships of pyrrole based S-nitrosoglutathione reductase inhibitors: pyrrole regioisomers and propionic acid replacement” (Bioorg Med Chem Lett, 2011).

In assay [1] the target is T1, 5-hydroxytryptamine receptor 3A (Homo sapiens) (UniProt P46098).
T1 sequence (whole entry): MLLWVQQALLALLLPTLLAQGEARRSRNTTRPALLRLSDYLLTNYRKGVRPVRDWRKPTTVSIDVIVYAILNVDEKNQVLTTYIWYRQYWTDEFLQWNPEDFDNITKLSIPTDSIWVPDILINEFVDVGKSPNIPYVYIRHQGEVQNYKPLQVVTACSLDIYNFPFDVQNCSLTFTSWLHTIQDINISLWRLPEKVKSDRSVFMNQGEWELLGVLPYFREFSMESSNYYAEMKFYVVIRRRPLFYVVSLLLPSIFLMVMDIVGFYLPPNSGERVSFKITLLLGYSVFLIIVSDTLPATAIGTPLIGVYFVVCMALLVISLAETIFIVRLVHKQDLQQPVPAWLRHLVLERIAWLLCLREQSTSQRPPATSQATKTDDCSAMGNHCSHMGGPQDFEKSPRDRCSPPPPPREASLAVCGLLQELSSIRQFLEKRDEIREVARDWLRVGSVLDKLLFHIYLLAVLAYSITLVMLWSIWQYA
The experiment in a line: Inhibition of human recombinant 5HT3 receptor at 10 uM by radioligand binding assay.

The target in assay [2] is T2, Muscarinic acetylcholine receptor M2 (Homo sapiens) (UniProt P08172).
T2 sequence (whole entry): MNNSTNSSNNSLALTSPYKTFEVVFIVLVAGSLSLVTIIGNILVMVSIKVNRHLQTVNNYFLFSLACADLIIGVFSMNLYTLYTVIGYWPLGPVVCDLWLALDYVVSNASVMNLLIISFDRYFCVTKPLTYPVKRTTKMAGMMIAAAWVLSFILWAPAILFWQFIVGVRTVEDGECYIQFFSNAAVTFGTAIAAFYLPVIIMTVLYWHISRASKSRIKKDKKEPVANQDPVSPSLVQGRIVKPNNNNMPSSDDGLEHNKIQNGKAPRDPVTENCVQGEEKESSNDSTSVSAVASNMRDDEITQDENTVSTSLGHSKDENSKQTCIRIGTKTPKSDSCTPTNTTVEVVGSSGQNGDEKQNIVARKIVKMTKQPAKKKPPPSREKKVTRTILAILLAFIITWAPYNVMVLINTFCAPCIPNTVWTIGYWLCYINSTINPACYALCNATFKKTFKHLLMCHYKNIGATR
The experiment in a line: Inhibition of human recombinant M2 receptor at 10 uM by radioligand binding assay.

The target of assay [3] is T3, Substance-K receptor (Homo sapiens) (UniProt P21452).
T3 sequence (whole entry): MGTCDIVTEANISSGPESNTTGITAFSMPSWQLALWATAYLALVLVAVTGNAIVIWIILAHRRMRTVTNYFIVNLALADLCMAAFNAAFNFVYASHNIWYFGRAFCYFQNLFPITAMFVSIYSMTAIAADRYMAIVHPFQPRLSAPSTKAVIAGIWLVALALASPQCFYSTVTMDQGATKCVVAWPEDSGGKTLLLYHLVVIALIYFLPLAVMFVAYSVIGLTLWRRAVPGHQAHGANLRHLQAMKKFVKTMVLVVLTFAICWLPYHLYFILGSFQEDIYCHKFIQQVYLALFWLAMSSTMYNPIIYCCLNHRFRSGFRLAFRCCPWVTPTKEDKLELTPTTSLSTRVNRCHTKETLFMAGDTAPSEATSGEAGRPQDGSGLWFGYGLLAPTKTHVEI
As to the kind of experiment: Inhibition of human recombinant NK2 receptor at 10 uM by radioligand binding assay.

In assay [4] the target is 5-hydroxytryptamine receptor 6 (Homo sapiens) (UniProt P50406). The experiment in a line: Inhibition of human recombinant 5HT6 receptor at 10 uM by radioligand binding assay.
5-hydroxytryptamine receptor 6 (Homo sapiens), sequence (P50406 whole entry): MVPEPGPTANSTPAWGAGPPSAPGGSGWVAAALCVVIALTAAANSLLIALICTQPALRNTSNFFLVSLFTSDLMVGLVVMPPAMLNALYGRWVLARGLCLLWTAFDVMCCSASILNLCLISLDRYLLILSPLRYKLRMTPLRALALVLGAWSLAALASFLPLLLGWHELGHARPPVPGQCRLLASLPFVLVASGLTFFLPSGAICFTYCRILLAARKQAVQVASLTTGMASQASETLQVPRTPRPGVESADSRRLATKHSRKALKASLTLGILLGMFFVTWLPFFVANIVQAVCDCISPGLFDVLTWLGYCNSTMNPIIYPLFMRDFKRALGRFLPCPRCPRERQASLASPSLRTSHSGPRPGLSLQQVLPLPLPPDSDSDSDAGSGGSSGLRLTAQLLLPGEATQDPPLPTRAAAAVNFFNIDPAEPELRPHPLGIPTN
Assay [5] deals with Neurotensin receptor type 1 (Homo sapiens) (UniProt P30989). As to the kind of experiment: Inhibition of human recombinant NTS1 receptor at 10 uM by radioligand binding assay.
Neurotensin receptor type 1 (Homo sapiens), sequence (P30989 whole entry): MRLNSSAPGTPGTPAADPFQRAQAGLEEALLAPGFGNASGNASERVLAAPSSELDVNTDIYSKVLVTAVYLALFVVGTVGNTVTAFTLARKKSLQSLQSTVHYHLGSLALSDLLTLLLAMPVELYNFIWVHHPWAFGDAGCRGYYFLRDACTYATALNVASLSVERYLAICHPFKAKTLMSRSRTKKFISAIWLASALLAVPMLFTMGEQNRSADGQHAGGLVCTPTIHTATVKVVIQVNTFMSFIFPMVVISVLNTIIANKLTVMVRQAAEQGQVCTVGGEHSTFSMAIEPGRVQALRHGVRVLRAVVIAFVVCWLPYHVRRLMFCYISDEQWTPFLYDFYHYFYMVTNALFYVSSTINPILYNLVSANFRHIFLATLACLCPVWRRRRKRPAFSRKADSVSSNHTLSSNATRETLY
Assay [6] concerns the target T4, Cholecystokinin receptor type A (Homo sapiens) (UniProt P32238).
T4 sequence (whole entry): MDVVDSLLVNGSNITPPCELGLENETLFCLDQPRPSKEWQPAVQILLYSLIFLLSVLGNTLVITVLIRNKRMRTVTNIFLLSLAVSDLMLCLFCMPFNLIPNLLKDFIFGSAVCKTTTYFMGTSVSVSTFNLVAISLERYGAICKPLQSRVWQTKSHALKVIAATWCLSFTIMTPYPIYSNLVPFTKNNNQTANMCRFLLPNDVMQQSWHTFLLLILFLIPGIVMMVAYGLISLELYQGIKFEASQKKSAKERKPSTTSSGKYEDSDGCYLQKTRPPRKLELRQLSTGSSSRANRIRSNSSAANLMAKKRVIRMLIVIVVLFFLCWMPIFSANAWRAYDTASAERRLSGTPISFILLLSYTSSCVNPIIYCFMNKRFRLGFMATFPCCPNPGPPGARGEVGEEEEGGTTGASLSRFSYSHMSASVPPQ
As to the kind of experiment: Inhibition of human recombinant CCK1 receptor at 10 uM by radioligand binding assay.

Assay [7] has as its target T5, Type-1 angiotensin II receptor (Homo sapiens) (UniProt P30556).
T5 sequence (whole entry): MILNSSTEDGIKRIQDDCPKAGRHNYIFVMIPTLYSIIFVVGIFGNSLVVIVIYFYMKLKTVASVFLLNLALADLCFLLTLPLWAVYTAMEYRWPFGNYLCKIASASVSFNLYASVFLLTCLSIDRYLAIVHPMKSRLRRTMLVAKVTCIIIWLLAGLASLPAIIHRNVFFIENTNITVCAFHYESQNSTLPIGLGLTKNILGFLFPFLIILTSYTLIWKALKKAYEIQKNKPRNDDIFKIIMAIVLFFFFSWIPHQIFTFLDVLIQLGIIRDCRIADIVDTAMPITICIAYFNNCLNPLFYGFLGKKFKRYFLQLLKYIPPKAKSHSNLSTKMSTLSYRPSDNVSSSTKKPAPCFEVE
The experiment in a line: Inhibition of human recombinant AT1 receptor at 10 uM by radioligand binding assay.

Assay [8] addresses Small conductance calcium-activated potassium channel protein 1 (Homo sapiens) (UniProt Q92952). The experiment in a line: Inhibition of human recombinant Skca channel at 10 uM by radioligand binding assay.
Assay [9] has as its target T6, Galanin receptor type 2 (Homo sapiens) (UniProt O43603).
T6 sequence (whole entry): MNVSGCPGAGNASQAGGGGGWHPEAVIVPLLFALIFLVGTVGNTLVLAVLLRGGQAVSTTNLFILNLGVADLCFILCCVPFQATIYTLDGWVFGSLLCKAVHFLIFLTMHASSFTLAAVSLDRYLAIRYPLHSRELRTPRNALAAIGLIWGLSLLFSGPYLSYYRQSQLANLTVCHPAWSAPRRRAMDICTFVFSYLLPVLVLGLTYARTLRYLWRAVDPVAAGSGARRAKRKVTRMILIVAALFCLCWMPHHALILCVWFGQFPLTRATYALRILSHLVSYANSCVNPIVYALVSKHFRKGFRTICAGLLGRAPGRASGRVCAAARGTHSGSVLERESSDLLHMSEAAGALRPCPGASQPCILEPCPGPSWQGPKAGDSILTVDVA
The experiment in a line: Inhibition of human recombinant GAL2 receptor at 10 uM by radioligand binding assay.

The next assay is filed under the species Homo sapiens. The experiment in a line: Inhibition of human recombinant sst receptor at 10 uM by radioligand binding assay.

Activity calls are given as the source filed them. The calls are words filed in the database; no cut-off is given here.

Small conductance calcium-activated potassium channel protein 1 (Homo sapiens), sequence (Q92952 whole entry): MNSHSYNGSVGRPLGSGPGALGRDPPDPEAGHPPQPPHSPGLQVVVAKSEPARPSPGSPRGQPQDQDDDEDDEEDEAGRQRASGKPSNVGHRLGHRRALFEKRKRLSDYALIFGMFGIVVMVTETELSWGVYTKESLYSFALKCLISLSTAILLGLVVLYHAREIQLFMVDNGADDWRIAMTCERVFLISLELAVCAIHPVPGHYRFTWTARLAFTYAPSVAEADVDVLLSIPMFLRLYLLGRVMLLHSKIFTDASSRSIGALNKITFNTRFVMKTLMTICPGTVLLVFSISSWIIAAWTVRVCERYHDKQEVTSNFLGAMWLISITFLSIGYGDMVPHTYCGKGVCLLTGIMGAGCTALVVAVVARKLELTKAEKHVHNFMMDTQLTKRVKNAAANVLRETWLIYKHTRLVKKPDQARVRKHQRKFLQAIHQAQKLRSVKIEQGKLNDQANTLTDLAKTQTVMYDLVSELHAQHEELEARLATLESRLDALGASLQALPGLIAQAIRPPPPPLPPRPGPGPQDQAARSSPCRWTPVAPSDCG

With `COc1ccc(-c2ccn(-c3ccc(O)c([N+](=O)[O-])c3)c2-c2ccc(C(N)=O)cc2C)cc1`, the inhibition result in [1], in assay [2], in assay [3], in assay [4], in assay [5] and in [6] was “Active” throughout. The inhibition entry (in [7]; in assay [8]; in assay [9]; in the assay filed under Homo sapiens) was “Active” each time.

`Cc1cc(C(N)=O)ccc1-c1c(CCC(=O)O)ccn1-c1ccc(-n2ccnc2)cc1`: the inhibition entry in [1], in [2], in assay [3], in [4], in [5] and in [6] was “inactive” each time. Also, the inhibition result (in assay [7]; in assay [8]; in assay [9]; in the assay filed under Homo sapiens) was “inactive” in each case.

Turning to `Cc1cc(C(N)=O)ccc1-c1c(-c2ccc(-n3ccnc3)cc2)ccn1CCC(=O)O`, the inhibition entry in assay [1], in assay [2], in assay [3], in assay [4], in [5] and in [6] was “inactive” each time. Further, the inhibition entry (in assay [7]; in [8]; in assay [9]; in the assay listed under Homo sapiens) was “inactive” each time.

Turning to `Cc1cc(C(N)=O)ccc1-n1c(CCC(=O)O)ccc1-c1ccc(-n2ccnc2)cc1` [N6022], the inhibition result in assay [1], in assay [2], in assay [3], in [4], in assay [5] and in [6] was “inactive” each time. In addition, the inhibition result (in assay [7]; in assay [8]; in assay [9]; in the assay listed under Homo sapiens) was “inactive” each time.

With `COc1ccc(-c2ccn(-c3ccc(C(=O)O)c(O)c3)c2-c2ccc(C(N)=O)cc2C)cc1`, the inhibition result in assay [1], in assay [2], in assay [3], in assay [4], in [5] and in [6] was “Active” each time. The inhibition entry (in [7]; in assay [8]; in assay [9]; in the assay filed under Homo sapiens) was “Active” in each case.
